This note sets out measurements from ChEMBL document CHEMBL6182916, “Unexpected Discovery of a Novel Triphenylphosphonium Alkylalcohol That Triggers Cancer Cell Death via Mitophagy and Ferroptosis” (J Med Chem, 2025).

For data set [1], the system named is A-375. Put plainly: Anticancer activity against human A-375 cells assessed as inhibition of cell growth by MTT assay. It is filed as functional, cell-based. In general terms: Formazan colour is commonly taken as a measure of viable cells.
Data set [2] concerns the target T1, Heat shock protein 75 kDa, mitochondrial (Homo sapiens) (UniProt Q12931).
T1 sequence (whole entry): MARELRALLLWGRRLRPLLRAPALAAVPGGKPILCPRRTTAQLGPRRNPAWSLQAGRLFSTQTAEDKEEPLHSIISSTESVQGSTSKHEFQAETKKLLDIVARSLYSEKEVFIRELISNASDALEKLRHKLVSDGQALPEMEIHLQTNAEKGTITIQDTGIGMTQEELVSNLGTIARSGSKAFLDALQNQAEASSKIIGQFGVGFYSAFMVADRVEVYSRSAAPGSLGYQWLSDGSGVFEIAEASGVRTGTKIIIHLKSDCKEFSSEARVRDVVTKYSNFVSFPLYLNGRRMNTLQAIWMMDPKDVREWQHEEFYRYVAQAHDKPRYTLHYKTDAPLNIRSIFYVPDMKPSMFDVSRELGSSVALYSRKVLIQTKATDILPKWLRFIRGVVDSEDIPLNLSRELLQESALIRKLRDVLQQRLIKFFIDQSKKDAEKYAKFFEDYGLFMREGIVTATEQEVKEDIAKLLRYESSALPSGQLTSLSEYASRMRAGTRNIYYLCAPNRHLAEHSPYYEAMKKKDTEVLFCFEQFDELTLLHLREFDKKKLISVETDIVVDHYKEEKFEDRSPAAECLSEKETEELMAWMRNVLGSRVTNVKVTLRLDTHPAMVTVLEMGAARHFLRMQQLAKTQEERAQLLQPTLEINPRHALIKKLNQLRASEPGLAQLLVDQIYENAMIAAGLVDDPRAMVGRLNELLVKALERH
Put plainly: Inhibition of human TRAP1 assessed as fold increase in ATPase activity at 20 uM.

For data set [3], the system named is HeLa. Put plainly: Induction of mitophagy in human HeLa cells harbouring mCherry-GFP tag assessed as reduction in GFP fluorescence at 40 uM incubated for 24 hrs by confocal microscopy analysis. Type of data set: functional, cell-based.
Data set [4] has as its system HeLa. Put plainly: Induction of mitophagy in human HeLa cells assessed as colocalization of mitochondria and lysosomes at 40 uM by mitoGFP staining based confocal microscopy analysis. Type of data set: functional, cell-based.
Data set [5] has as its system HeLa. Put plainly: Induction of mitophagy in human HeLa cells harbouring mCherry-GFP tag assessed as visible mCherry fluorescence at 40 uM incubated for 24 hrs by confocal microscopy analysis. It is filed as functional, cell-based.
For data set [6], the system named is HeLa. Put plainly: Induction of mitophagy in human HeLa cells assessed as colocalization of mitochondria and lysosomes at 40 uM by lysotracker red staining based confocal microscopy analysis. Type of data set: functional, cell-based.
The nature of data set [7]: Drug localization in mitochondria of human HCC827 cells assessed as increase in green fluorescence by measuring pearson correlation coefficient at 10 uM incubated for 10 mins by mito-tracker green dye based confocal scanning microscopy analysis. Type of data set: ADME. Particulars: hcc827, 10 min.
Data set [8] is described as follows: Drug metabolism in human HCC827 cells mitochondria assessed as 2-(2-(4-hydroxystyryl)-4H-chromen-4-ylidene)malononitrile hydrolysis at 10 uM incubated for 5 mins by fluorescence emission spectroscopy analysis. Type of data set: ADME. The following applies: hcc827, 5 min.
Data set [9] in a line: Drug uptake in human HCC827 cells mitochondria assessed as increase in fluorescence intensity at 10 uM by fluorescence emission spectroscopy analysis. It is filed as ADME. Particulars: hcc827, 10 µM.

The structures appear in SMILES notation. Activity calls are given as the source filed them. No cut-off for these calls is given here. Where only a bound is given, the exact number is not on record here.

Broadly, the IC50 is the concentration at which inhibition is half-maximal. As to `O=C(CCCCC(CCSCc1ccccc1)SCc1ccccc1)OCCCCCCCCCC[P+](c1ccccc1)(c1ccccc1)c1ccccc1` (stereo not drawn), the IC50 in data set [1] was determined as 100 nM.
With `CC1=C(C)C(=O)C(CCCCCCCCCC[P+](c2ccccc2)(c2ccccc2)c2ccccc2)=CC1=O`, the fold change (FC) in data set [2] is 1.4.
Regarding `N#CC(C#N)=NNc1cccc(Cl)c1`, the outcome in data set [3], in data set [4], in data set [5] and in [6] was Active.
In the case of `OCCCCC[P+](c1ccccc1)(c1ccccc1)c1ccccc1`, the IC50 in data set [1] was over 40000 nM.
Take `Cc1ccc([P+](CCCCCCCCCCOC(=O)Oc2ccc(/C=C/C3=CC(=C(C#N)C#N)c4ccccc4O3)cc2)(c2ccc(C)cc2)c2ccc(C)cc2)cc1.[Br-]`: the Drug uptake is 0.84 in data set [7] and “Active” in data set [9]. Also, the Drug metabolism entry in data set [8] is reported as “metabolite_detected”.
In the same order, the values of `N#CC(C#N)=C1C=C(/C=C/c2ccc(OC(=O)OCCCCCCCCCC[P+](c3ccc(C(F)(F)F)cc3)(c3ccc(C(F)(F)F)cc3)c3ccc(C(F)(F)F)cc3)cc2)Oc2ccccc21.[Br-]` are 0.46, “Not_active” and “metabolite_detected”.
